Read-outs that look alike come from different tables or passages of the source.
Key:
[1] = Biodistribution of cytochalasin B after i.p. injection (HPLC); format: in vivo, mice; conditions: 50 mg/kg i.p.
Experimental: Biodistribution of Cytochalasin B. To determine the biodistribution of cytochalasin B, mice were injected (i.p.) with 50 mg/kg cytochalasin B. Control mice were injected with DMSO/Tween 20/carboxymethyl cellulose (“vehicle”). The mice were sacrificed at 3, 12, 24 and 72 hours after cytochalasin B or vehicle administration. Organs were removed, homogenized, extracted and the amount of cytochalasin B in tissues quantitated by HPLC. About 75% of the cytochalasin B remained in the peritoneal cavity or at the injection site.

[2] = tested on: swine coronary arteries traumatized by embolectomy or over-sized PTCA balloon; experiment: Swine coronary artery study, MIC catheter infusion, morphometry at 4 weeks (Table 15); format: in vivo; conditions: 8.0 μg/ml
Experimental: Swine coronary arteries were also traumatized by embolectomy or over-sized PTCA balloon, and then 8-16 ml of cytochalasin B at 8.0 μg/ml was infused into the arterial wall with a MIC catheter to achieve a therapeutic dose. Controls included a diluent control and a traumatized untreated control, and all animals were sacrificed 4 weeks after intervention and coronary arteries were fixed by perfusion. Morphometry was performed on selected sections from proximal, treated and distal segments of coronary arteries (Table 15).

[3] = tested on: balloon traumatized rabbit carotid artery; format: in vivo
[4] = tested on: Vascular smooth muscle cells
[5] = tested on: balloon traumatized left carotid artery

C=C1[C@@H](C)[C@H]2[C@H](Cc3ccccc3)NC(=O)[C@]23OC(=O)/C=C/[C@H](O)CCC[C@@H](C)C/C=C/[C@H]3[C@@H]1O [cytochalasin B]
organ with the highest amount [1]: liver
arterial remodeling (area bounded by the external elastic lamina) [2]: trend toward beneficial arterial remodeling
luminal area [2]: did not result in a statistically significant increase in luminal area
intimal proliferation ([3]; Group 1, 2 weeks): minimal intimal and adventital proliferation
intimal proliferation ([3]; Group 1, three weeks): no intimal proliferation
intimal proliferation ([3]; Group 1: 20 mg in 1 g bovine collagen gel in collagen mesh wrap, 1 week): no intimal or adventital proliferation
intimal proliferation ([3]; Group 2, 3 weeks): moderate, irregular intimal proliferation
intimal proliferation ([3]; Group 2, two weeks): complete inhibition of intimal proliferation
intimal proliferation ([3]; Group 3, three weeks): moderate amount of intimal hyperplasia
intimal proliferation ([3]; Group 3, two weeks): mild, irregular intimal proliferation
intimal proliferation ([3]; Group 3: 8 mg in 100 mg pluronic gel on collagen mesh wrap, one week): mild intimal proliferation
intimal proliferation ([3]; Group 4, three weeks): minimal to no intimal proliferation
intimal proliferation ([3]; Group 4, two weeks): minimal intimal proliferation
intimal proliferation ([3]; Group 7a, three weeks): mild irregular intimal proliferation
intimal proliferation ([3]; Group 7a: 10% wt/wt, one week): no intimal proliferation
re-endothelization ([3]; Group 8a, animal 1254): approximately 60%
intimal proliferation ([3]; Group 8a, animal 1255): mild to moderate intimal proliferation
intimal proliferation ([3]; Group 8a, animal 1256): moderate intimal proliferation
intimal proliferation ([3]; Group 8a: 10% wrap 2 weeks, removed, 2 weeks later, animal 1254): none to mild
intimal proliferation ([3]; Group 10 (1% wrap, 2 weeks after removal), animal 1304): moderate initmal proliferation
re-endothelization ([3]; Group 10, animal 1304): 100%
intimal proliferation ([3]; Group 11 (1% wrap, four weeks after removal), animal 1307): moderate initmal proliferation
intimal proliferation ([3]; Group 11, animal 1308): moderate intimal proliferation
re-endothelization ([3]; Group 11, animal 1308): 100%
intimal proliferation ([3]; Group 11, animal 1309): marked intimal proliferation
qualitative difference between test and control animals ([3]; Groups 10 and 11: 1% wt/wt silicone wrap 2 weeks, removed, evaluated 2 or 4 weeks later): No significant difference
Morphological cytotoxicity grade ([4]; 0.01 μg, 24 hrs + 24 hrs): 0
Morphological cytotoxicity grade ([4]; 0.01 μg, 24 hrs + 48 hrs): 0
Morphological cytotoxicity grade ([4]; 0.01 μg, 24 hrs + 72 hrs): 0
Morphological cytotoxicity grade ([4]; 0.01 μg, 24 hrs + 96 hrs): 0
Morphological cytotoxicity grade ([4]; 0.01 μg, 24 hrs + 120 hrs): 0
Morphological cytotoxicity grade ([4]; 0.01 μg, Continuous 6 hrs): 0
Morphological cytotoxicity grade ([4]; 0.01 μg, Continuous 24 hrs (first listing)): 0
Morphological cytotoxicity grade ([4]; 0.01 μg, Continuous 24 hrs (second listing)): 0
Morphological cytotoxicity grade ([4]; 0.01 μg, Continuous 48 hrs): 0
Morphological cytotoxicity grade ([4]; 0.01 μg, Continuous 72 hrs): 0
Morphological cytotoxicity grade ([4]; 0.01 μg, Continuous 96 hrs): 0
Morphological cytotoxicity grade ([4]; 0.01 μg, Continuous 120 hrs): 0
Morphological cytotoxicity grade ([4]; 0.01 μg, Continuous 168 hrs): 0
Morphological cytotoxicity grade ([4]; 0.01 μg, Continuous 216 hrs): 0
Morphological cytotoxicity grade ([4]; 0.01 μg, Continuous 264 hrs): 0
Morphological cytotoxicity grade ([4]; 0.1 μg, 5 min + 2 hrs): 0
Morphological cytotoxicity grade ([4]; 0.1 μg, 5 min + 24 hrs): 0
Morphological cytotoxicity grade ([4]; 0.1 μg, 5 min + 48 hrs): 0
Morphological cytotoxicity grade ([4]; 0.1 μg, 5 min + 72 hrs): 0
Morphological cytotoxicity grade ([4]; 0.1 μg, 5 min + 96 hrs): 0
Morphological cytotoxicity grade ([4]; 0.1 μg, 5 min + 120 hrs): 0
Morphological cytotoxicity grade ([4]; 0.1 μg, 24 hrs + 24 hrs): 0.5
Morphological cytotoxicity grade ([4]; 0.1 μg, 24 hrs + 48 hrs): 1
Morphological cytotoxicity grade ([4]; 0.1 μg, 24 hrs + 72 hrs): 0.5
Morphological cytotoxicity grade ([4]; 0.1 μg, 24 hrs + 96 hrs): 0
Morphological cytotoxicity grade ([4]; 0.1 μg, 24 hrs + 120 hrs): 0
Morphological cytotoxicity grade ([4]; 0.1 μg, Continuous 6 hrs): 0
Morphological cytotoxicity grade ([4]; 0.1 μg, Continuous 24 hrs (first listing)): 1
Morphological cytotoxicity grade ([4]; 0.1 μg, Continuous 24 hrs (second listing)): 0
Morphological cytotoxicity grade ([4]; 0.1 μg, Continuous 48 hrs): 1
Morphological cytotoxicity grade ([4]; 0.1 μg, Continuous 72 hrs): 1
Morphological cytotoxicity grade ([4]; 0.1 μg, Continuous 120 hrs): 1
Morphological cytotoxicity grade ([4]; 0.1 μg, Continuous 168 hrs): 1
Morphological cytotoxicity grade ([4]; 0.1 μg, Continuous 216 hrs): 1
Morphological cytotoxicity grade ([4]; 0.1 μg, Continuous 264 hrs): 1
Morphological cytotoxicity grade ([4]; 1 μg, 5 min + 2 hrs): 0
Morphological cytotoxicity grade ([4]; 1 μg, 5 min + 48 hrs): 1
Morphological cytotoxicity grade ([4]; 1 μg, 5 min + 72 hrs): 1
Morphological cytotoxicity grade ([4]; 1 μg, 5 min + 96 hrs): 1
Morphological cytotoxicity grade ([4]; 1 μg, 5 min + 120 hrs): 1
Morphological cytotoxicity grade ([4]; 1 μg, 24 hrs + 24 hrs): 3
Morphological cytotoxicity grade ([4]; 1 μg, 24 hrs + 48 hrs): 4
Morphological cytotoxicity grade ([4]; 1 μg, 24 hrs + 72 hrs): 4
Morphological cytotoxicity grade ([4]; 1 μg, 24 hrs + 96 hrs): 4
Morphological cytotoxicity grade ([4]; 1 μg, 24 hrs + 120 hrs): 4
Morphological cytotoxicity grade ([4]; 1 μg, Continuous 24 hrs (first listing)): 3
Morphological cytotoxicity grade ([4]; 1 μg, Continuous 24 hrs (second listing)): 3
Morphological cytotoxicity grade ([4]; 1 μg, Continuous 48 hrs): 3
Morphological cytotoxicity grade ([4]; 1 μg, Continuous 72 hrs): 3
Morphological cytotoxicity grade ([4]; 1 μg, Continuous 96 hrs): 3
Morphological cytotoxicity grade ([4]; 1 μg, Continuous 120 hrs): 3
Morphological cytotoxicity grade ([4]; 1 μg, Continuous 168 hrs): 4
Morphological cytotoxicity grade ([4]; 1 μg, Continuous 216 hrs): 4
Morphological cytotoxicity grade ([4]; 1 μg, Continuous 264 hrs): 4
cytotoxicity grade at in vitro effective dosage ([4]; 1 μg/ml, anti-migration/contraction effective dose): 1
Morphological cytotoxicity grade ([4]; 10 μg, 5 min + 2 hrs): 0.5
Morphological cytotoxicity grade ([4]; 10 μg, 5 min + 24 hrs): 4
Morphological cytotoxicity grade ([4]; 10 μg, 5 min + 48 hrs): 4
Morphological cytotoxicity grade ([4]; 10 μg, 5 min + 120 hrs): 5
morphometry vs untreated controls ([5]; 14 days): no statistical difference from the controls
post-surgical weight gain ([5]; periadventitial crystals): delay in post-surgical weight gain
toxicity at the surgical site ([5]; periadventitial crystals): significant toxicity at the surgical site
